{"source": "patent US7972849B2", "about": "“Primate pluripotent stem cells produced by somatic cell nuclear transfer” (Oregon Health & Science University, priority 2007, dated 2011)", "format_in_all_cases": "cell-based, rhesus monkey", "key": {"monkey oocytes [1]": {"tested_on": "monkey oocytes", "test": "In vitro development following fertilization by ICSI of oocytes exposed to MG-132", "settings": "4 hours, MI oocytes, after ICSI", "method": "Fertilization by ICSI and culture conditions for TSCs was performed as described previously (Wolf, Thormahlen et al. 2004). After ICSI, injected oocytes were placed in 4-well dishes (Nalge Nunc International Co., Naperville, Ill.) containing protein-free HECM-9 medium and cultured at 37° C. in 6% CO2, 5% O2 and 89% N2. Cultures were maintained under paraffin oil. SCNT-derived TSCs at the 8-cell stage were transferred to fresh plates of HECM-9 medium supplemented with 5% fetal bovine serum (FBS; HyClone, Logan, Utah) and cultured to the blastocyst stage with the medium changed every other day.\nFailure to induce nuclear remodeling could reflect either inherently low MPF levels in MII oocytes recovered from ovarian stimulation protocols or loss of MPF resulting from premature oocyte activation during manipulation. In order to evaluate the first possibility, nuclear donor cells were fused with intact (non-enucleated) MII oocytes (n=13). […] To test the hypothesis that failed nuclear remodeling reflects premature activation caused by the SCNT procedures and decline in MPF activity mediated by the proteasome system, proteasome catalytic activity was inhibited with MG-132 (Josefsberg et al., Biol Reprod 62(5): 1270-7, 2000; Zhou et al., Science 302(5648): 117 2003)."}, "monkey oocytes [2]": {"tested_on": "monkey oocytes", "test": "Inhibition of 1st polar body extrusion in monkey oocytes during the MI-MII transition", "settings": "for # Matured after exposure / # Matured during exposure: exposure time 4 hours, MI oocytes, N=5"}, "monkey SCNT embryos [3]": {"tested_on": "monkey SCNT embryos", "test": "Nuclear remodeling (lamin A/C immunostaining, chromatin condensation) in reconstructed SCNT embryos", "settings": "for occurrence of remodeling events in the donor nucleus: when used in the SCNT protocols disclosed", "method": "Monkey oocytes and SCNT-derived totipotent cells were fixed in 4% paraformaldehyde for 20 min. After permeabilization with 0.2% Triton X-100 and 0.1% Tween-20, non-specific reactions were blocked with 10% normal goat serum (Jackson ImmunoResearch Laboratories, Inc., West Grove, Pa.). SCNT-derived totipotent cells were then incubated for 40 min in mouse monoclonal antibody against Oct-4 (POU5F1) or lamin A/C (1:200; Santa Cruz Biotechnology, Inc., Santa Cruz, Calif.). After extensive washing, SCNT-derived totipotent cells were exposed to affinity-purified goat anti-mouse, secondary antibody conjugated with indocarbocyanine (Cy3, 1:200; Jackson ImmunoResearch). SCNT-derived totipotent cells were then co-stained with 2 μg/ml of 4′, 6-diamidino-2-phenylindole (DAPI) for 10 min, whole-mounted onto slides and examined under epifluorescence microscopy.\nMature MII oocytes were exposed to 5 μM MG-132 immediately after retrieval and maintained in this inhibitor throughout enucleation and somatic donor cell fusion procedures.\nMonkey oocytes are particularly vulnerable to premature activation and MPF degradation during in vitro manipulations, a likely characteristic of primates but with potential relevance to SCNT success in other mammals."}, "monkey SCNT embryos [4]": {"tested_on": "monkey SCNT embryos", "test": "Blastocyst development of monkey SCNT embryos produced by electrofusion", "from_the_text": "Alternatively, donor cell nuclear transfer was accomplished by electrofusion. Electrofusion procedures were similar to the conventional protocols described previously (Mitalipov, Yeoman et al. 2002; Mitalipov, Kuo et al. 2003) with the exception that calcium acetates were removed from the fusion buffer. A disaggregated donor cell was aspirated into a micropipette and transferred into the perivitelline space of the cytoplast. Cell fusion was induced by two 50 μsec DC pulses of 2.7 kV/cm (Electro Square Porator T-820, BTX, Inc., San Diego, Calif.) in 0.25 M D-sorbitol buffer containing 0.5 mM Hepes and 1 mg/ml fatty acid-free BSA. Successful fusion was confirmed visually 20-30 min after electroporation by the disappearance of the donor cell in the perivitelline space.\nReconstructed embryos were activated 2 hours after fusion by exposure by exposure to […] ionomycin (CalBiochem, San Diego, Calif.) for 5 min in TALP/HEPES medium supplemented with 1 mg/ml BSA and then transferred for 5 min in TALP/HEPES medium supplemented with 30 mg/ml BSA and 2 mM 6-dimethylaminopurine followed by a 5 h incubation in HECM-9 medium containing 2 mM 6-dimethylaminopurine at 37° C. in 5% CO2, 5% O2 and 90% N2. Activated SCNT embryos were placed in HECM-9 medium and cultured as described above."}}, "note": "Where a SMILES comes first, the peptide text is derived from it. The star is where a group is joined. Cbz = O=C(OCc1ccccc1)*", "data": [{"smiles": "CC(C)C[C@@H](C=O)NC(=O)[C@H](CC(C)C)NC(=O)[C@H](CC(C)C)NC(=O)OCc1ccccc1", "note": "[MG-132] (Cbz-Leu-Leu-Leu-aldehyde)", "values": [{"measurement": "# 8-cell", "setting": "monkey oocytes [1]; MG-132 0.5 μM", "result": 3}, {"measurement": "# Blastocyst", "setting": "monkey oocytes [1]; MG-132 0.5 μM", "result": 3}, {"measurement": "# Morula", "setting": "monkey oocytes [1]; MG-132 0.5 μM", "result": 3}, {"measurement": "# 8-cell", "setting": "monkey oocytes [1]; MG-132 2 μM", "result": 2}, {"measurement": "# Blastocyst", "setting": "monkey oocytes [1]; MG-132 2 μM", "result": 0}, {"measurement": "# Morula", "setting": "monkey oocytes [1]; MG-132 2 μM", "result": 0}, {"measurement": "# 8-cell", "setting": "monkey oocytes [1]; MG-132 5 μM", "result": 1}, {"measurement": "# Blastocyst", "setting": "monkey oocytes [1]; MG-132 5 μM", "result": 0}, {"measurement": "# Morula", "setting": "monkey oocytes [1]; MG-132 5 μM", "result": 0}, {"measurement": "# Matured after exposure", "setting": "monkey oocytes [2]; MG-132 0.5 μM", "result": 1}, {"measurement": "# Matured during exposure", "setting": "monkey oocytes [2]; MG-132 0.5 μM", "result": 3}, {"measurement": "# Matured after exposure", "setting": "monkey oocytes [2]; MG-132 2 μM", "result": 3}, {"measurement": "# Matured during exposure", "setting": "monkey oocytes [2]; MG-132 2 μM", "result": 2}, {"measurement": "# Matured after exposure", "setting": "monkey oocytes [2]; MG-132 5 μM", "result": 4}, {"measurement": "# Matured during exposure", "setting": "monkey oocytes [2]; MG-132 5 μM", "result": 0}, {"measurement": "inhibition of first polar body extrusion during the MI to MII transition", "setting": "monkey oocytes [2]; MG-132 at 5 μM, pilot study", "result": "efficient in inhibiting first polar body extrusion"}, {"measurement": "nuclear remodeling of reconstructed embryos, by 4 hours after fusion", "setting": "monkey SCNT embryos [3]; 5 μM MG-132 from retrieval throughout enucleation and fusion, by 4 hours", "result": "clear evidence of nuclear remodeling"}, {"measurement": "nuclear remodeling of reconstructed embryos, 1 hour after fusion", "setting": "monkey SCNT embryos [3]; 5 μM MG-132 from retrieval throughout enucleation and fusion, sampled 1 hour after fusion", "result": "slight chromatin condensation and moderate lamin A/C staining"}, {"measurement": "MPF activity in monkey cytoplasts", "setting": "monkey SCNT embryos [3]; MG-132 exposure at the higher concentration (5 μM)", "result": "preserved MPF activity"}, {"measurement": "occurrence of remodeling events in the donor nucleus", "setting": "monkey SCNT embryos [3]", "result": "increased the occurrence of remodeling events in the donor nucleus"}]}, {"smiles": "Cn1c(=O)c2c(ncn2C)n(C)c1=O", "note": "[caffeine]", "values": [{"measurement": "time at which SCNT embryos reached the blastocyst stage", "setting": "monkey SCNT embryos [4]; 2.5 mM caffeine for 2 hours immediately after electrofusion", "result": "≤ 8", "unit": "days"}, {"measurement": "# Blastocysts forming by day 12", "setting": "monkey SCNT embryos [4]; SCNT plus caffeine, 2.5 mM for 2 hours after electrofusion", "result": 0}, {"measurement": "# Blastocysts forming by day 8", "setting": "monkey SCNT embryos [4]; SCNT plus caffeine, 2.5 mM for 2 hours after electrofusion, count", "result": 4}, {"measurement": "Blastocysts forming by day 8 (%)", "setting": "monkey SCNT embryos [4]; SCNT plus caffeine, 2.5 mM for 2 hours after electrofusion, percentage", "result": 31, "unit": "%"}, {"measurement": "# cleaved", "setting": "monkey SCNT embryos [4]; SCNT plus caffeine, 2.5 mM for 2 hours immediately after electrofusion, N=19", "result": 13}, {"measurement": "occurrence of remodeling events in the donor nucleus", "setting": "monkey SCNT embryos [3]", "result": "increased the occurrence of remodeling events in the donor nucleus"}]}]}
